Where a SMILES comes first, the peptide text is derived from it. [ ]: non-standard residue; d: D form. The star is where a group is joined. ξ: configuration not given here. NMeW = CN[C@@H](Cc1c[nH]c2ccccc12)C(=O)O; Stearoyl = CCCCCCCCCCCCCCCCCC(=O)*; ξαMeV = CC(C)C(C)(N)C(=O)O; ξαMeS = CC(N)(CO)C(=O)O; GABA = NCCCC(=O)O; βAla = NCCC(=O)O
Assays:
[1] = system: colon cancer cell line (SW480); format: cell-based; conditions: for Cell growth / viability: SW480, peptide added daily, 7 days
Protocol: Peptides inhibiting β-catenin cause decreased cell viability in a colon cancer cell line (SW480) and endometriosis lesions excised from a disease animal model. Peptides from libraries described herein are characterized in their effect on cell viability, as measured using a luminescent cell viability assay (Cell Titer-Glo®, Promega, Madison, WI) and expressed as IC50 in Table 5. Peptide inhibitors were tested for their ability to inhibit cellular proliferation across 2 different β-catenin expressing pathogenic cell lines: a colon cancer cell line (SW480) and/or mouse EMS lesion cells derived from mouse model of disease. Both cells lines are naturally known to express high levels of β-catenin. Cell lines were incubated with varying concentrations of peptide concentration and assessed for viability after day 5 and 7 days. The CellTiter-Glo® Luminescent Cell Viability Assay (Promega) is used to detect viable cells. IC50 values are graphed and calculated using Prism software (GraphPad) based on the cell viability readouts. IC50 is used to assess inhibition of cell proliferation by peptide concentration and is used to calculate the inhibitory effect of each peptide across each line. The results are used to assess the therapeutic potency of the peptides. In the SW480 cell line, peptide inhibitors from Family 1 (SEQ ID NO:264) and Family 2 (SEQ ID NO:396) were added daily to the cell growth medium. After 7 days, cell viability was assessed with the Cell-Titer Glo kit (Promega, Madison, WI). […] IC50 was calculated for peptides based on the concentration at which 50% viability was observed (Table 5).

[2] = target: Wnt-responsive promoter (TCF/LEF); assay: Wnt-dependent luciferase reporter assay; format: cell-based, murine
How it was run: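 EC50 (uM) derived from inhibition of luminescence in Wnt3a-stimulated murine 3T3 cells expressing luciferase under a TCF/LEF promoter, with peptides added across a concentration range and vehicle as control.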

β-catenin = target: T1, β-catenin (Homo sapiens, UniProt P35222); assay: KD50 measurement using competitive fluorescence polarization (FP) with labelled TCF4; format: binding; conditions: fluorescence polarization, β-catenin; for Kd: read-out: β-Cat FP KD
T1 sequence (P35222 1-781): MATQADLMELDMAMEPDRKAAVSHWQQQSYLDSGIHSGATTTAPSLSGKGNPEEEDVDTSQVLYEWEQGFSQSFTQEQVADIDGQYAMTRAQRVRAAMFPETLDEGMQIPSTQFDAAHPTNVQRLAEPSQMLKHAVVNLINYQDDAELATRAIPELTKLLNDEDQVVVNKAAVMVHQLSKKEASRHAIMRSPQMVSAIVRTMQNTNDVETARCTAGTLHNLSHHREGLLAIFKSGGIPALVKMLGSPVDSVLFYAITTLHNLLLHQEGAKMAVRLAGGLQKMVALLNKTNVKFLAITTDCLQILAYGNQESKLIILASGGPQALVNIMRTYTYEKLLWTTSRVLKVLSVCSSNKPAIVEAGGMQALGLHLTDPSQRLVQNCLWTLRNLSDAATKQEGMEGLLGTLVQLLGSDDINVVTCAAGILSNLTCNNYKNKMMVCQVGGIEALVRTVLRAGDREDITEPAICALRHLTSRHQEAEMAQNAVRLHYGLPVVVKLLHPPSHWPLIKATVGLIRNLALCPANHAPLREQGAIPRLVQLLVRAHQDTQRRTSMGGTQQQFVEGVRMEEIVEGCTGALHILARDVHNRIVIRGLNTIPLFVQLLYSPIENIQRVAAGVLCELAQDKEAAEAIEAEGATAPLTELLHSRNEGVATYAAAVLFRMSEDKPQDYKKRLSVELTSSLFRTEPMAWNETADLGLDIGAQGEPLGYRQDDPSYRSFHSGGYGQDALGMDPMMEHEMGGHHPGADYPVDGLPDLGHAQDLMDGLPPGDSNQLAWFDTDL
How it was run: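 5 nM labelled TCF4 was combined with 100 nM β-catenin at room temperature, then inhibitor was titrated in serial dilutions from 10 nM to 30 uM. Polarization was read at excitation 470 nm, emission 520 nm; displacement lowers the signal. Three independent experiments.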

in vitro = conditions: % Viability non-Wnt responsive cells

Structure (SMILES)	IC50 [1] [µM]	EC50 [2] [µM]	β-Cat FP Hill slope (β-catenin)	Kd (β-catenin) [µM]	Cell growth / viability [1]	viability (in vitro) [%]
CCCCCCCCCCCCCCCCCC(=O)NCCC(=O)N[C@@H](Cc1c[nH]c2ccccc12)C(=O)N(C)[C@@H](Cc1c[nH]c2ccccc12)C(=O)N[C@@H](CCC(=O)O)C(=O)NC(C)(CO)C(=O)N[C@H](C(=O)N[C@@H](CC(C)C)C(=O)N[C@@H](CC(=O)O)C(=O)N[C@@H](CCC(=O)O)C(=O)N[C@@H](Cc1c[nH]cn1)C(=O)NC(C)(C(=O)N[C@@H](CCC(N)=O)C(=O)N[C@@H](CCCNC(=N)N)C(=O)N[C@H](C(=O)N[C@@H](Cc1c[nH]c2ccccc12)C(=O)NCC(=O)O)C(C)C)C(C)C)[C@@H](C)CC (stereo partly shown) [compound 391] ({Stearoyl-βAla}-W[NMeW]E[ξαMeS]ILDEH[ξαMeV]QRVWG-OH)	4.8	< 7.5	–	–	–	–
CCCCCCCCCCCCCC(=O)NCC(=O)N[C@@H](Cc1c[nH]c2ccccc12)C(=O)N(C)[C@@H](Cc1c[nH]c2ccccc12)C(=O)N[C@@H](CCC(=O)O)C(=O)N[C@@H](CO)C(=O)N[C@H](C(=O)N[C@@H](CC(C)C)C(=O)N[C@@H](CC(=O)O)C(=O)N[C@@H](CCC(=O)O)C(=O)N[C@@H](Cc1c[nH]cn1)C(=O)N[C@H](C(=O)N[C@@H](CCC(N)=O)C(=O)N[C@@H](CCCNC(=N)N)C(=O)N[C@H](C(=O)N[C@@H](Cc1c[nH]c2ccccc12)C(=O)NCC(=O)O)C(C)C)C(C)C)[C@@H](C)CC [compound 1] (HELM PEPTIDE1{[CCCCCCCCCCCCCC(=O)[*:2]].G.W.[meW].E.S.I.L.D.E.H.V.Q.R.V.W.G}$$$$V2.0)	18.5	–	0.8	< 0.4	–	–
CC[C@H](C)[C@H](NC(=O)[C@H](CC(C)C)NC(=O)[C@@H](NC(=O)[C@H](Cc1c[nH]c2ccccc12)NC(=O)[C@H](CCSC)N(C)C)[C@@H](C)CC)C(=O)N[C@@H](CO)C(=O)N[C@@H](Cc1ccccc1)C(=O)N[C@@H](Cc1c[nH]c2ccccc12)C(=O)NCC(=O)O [SEQ ID NO: 264] (HELM PEPTIDE1{[CSCC[C@@H](C(=O)[*:2])N(C)C].W.I.L.I.S.F.W.G}$$$$V2.0)	–	–	–	–	inhibited cell growth	–
CCCCCCCCCCCCCCCCCC(=O)N[C@@H](Cc1c[nH]c2ccccc12)C(=O)N(C)[C@@H](Cc1c[nH]c2ccccc12)C(=O)N[C@@H](CCC(=O)O)C(=O)NC(C)(CO)C(=O)N[C@H](C(=O)N[C@@H](CC(C)C)C(=O)N[C@@H](CC(=O)O)C(=O)N[C@@H](CCC(=O)O)C(=O)N[C@@H](Cc1c[nH]cn1)C(=O)NC(C)(C(=O)N[C@@H](CCC(N)=O)C(=O)N[C@@H](CCCNC(=N)N)C(=O)N[C@H](C(=O)N[C@@H](Cc1c[nH]c2ccccc12)C(=O)NCC(=O)O)C(C)C)C(C)C)[C@@H](C)CC (stereo partly shown) [compound 390] (Stearoyl-W[NMeW]E[ξαMeS]ILDEH[ξαMeV]QRVWG-OH)	4.7	7.5 to 15	–	–	–	–
CC[C@H](C)[C@@H]1NC(=O)[C@H](CO)NC(=O)[C@H](CCC(=O)O)NC(=O)[C@H](C)N(C)C(=O)[C@@H](N)CCCCNC(=O)CNC(=O)[C@H](Cc2c[nH]c3ccccc23)NC(=O)[C@H](C(C)C)NC(=O)[C@H](CCCNC(=N)N)NC(=O)[C@H](CCC(N)=O)NC(=O)[C@H](C(C)C)NC(=O)[C@H](Cc2c[nH]cn2)NC(=O)[C@H](CCC(=O)O)NC(=O)[C@H](CC(=O)O)NC(=O)[C@H](CC(C)C)NC1=O [compound 18] (HELM PEPTIDE1{K.[meA].E.S.I.L.D.E.H.V.Q.R.V.W.G}$PEPTIDE1,PEPTIDE1,1:R3-15:R2$$$V2.0; bridges inferred)	–	> 30	–	> 30	–	90.2
CC[C@H](C)[C@@H]1NC(=O)[C@H](CO)NC(=O)[C@H](CCC(N)=O)NC(=O)[C@H](C)N(C)C(=O)[C@@H](N)CCCCNC(=O)CNC(=O)[C@H](Cc2c[nH]c3ccccc23)NC(=O)[C@H](C(C)C)NC(=O)[C@H](CCCNC(=N)N)NC(=O)[C@H](CCC(N)=O)NC(=O)[C@H](C(C)C)NC(=O)[C@H](Cc2c[nH]cn2)NC(=O)[C@H](CCC(=O)O)NC(=O)[C@H](CC(=O)O)NC(=O)[C@H](CC(C)C)NC1=O [compound 19] (HELM PEPTIDE1{K.[meA].Q.S.I.L.D.E.H.V.Q.R.V.W.G}$PEPTIDE1,PEPTIDE1,1:R3-15:R2$$$V2.0; bridges inferred)	–	> 30	–	> 30	–	104
CCCCCCCCCCCCCCCC(=O)N[C@@H](Cc1c[nH]c2ccccc12)C(=O)N(C)[C@@H](Cc1c[nH]c2ccccc12)C(=O)N[C@@H](CCC(=O)O)C(=O)NC(C)(CO)C(=O)N[C@H](C(=O)N[C@@H](CC(C)C)C(=O)N[C@@H](CC(=O)O)C(=O)N[C@@H](CCC(=O)O)C(=O)N[C@@H](Cc1c[nH]cn1)C(=O)NC(C)(C(=O)N[C@@H](CCC(N)=O)C(=O)N[C@@H](CCCNC(=N)N)C(=O)N[C@H](C(=O)N[C@@H](Cc1c[nH]c2ccccc12)C(=O)NCC(=O)O)C(C)C)C(C)C)[C@@H](C)CC (single isomer, unassigned) [SEQ ID NO: 396, Palmitoyl-W-NmeW-E-aMeS-ILDEH-aMeV-QRVWG-COOH]	–	–	–	–	inhibited cell growth	–
CC[C@H](C)[C@@H]1NC(=O)[C@H](CO)NC(=O)[C@H](CCC(N)=O)NC(=O)[C@H](C)N(C)C(=O)[C@H](Cc2c[nH]c3ccccc23)NC(=O)[C@@H](N)CCCCNC(=O)CNC(=O)[C@H](Cc2c[nH]c3ccccc23)NC(=O)[C@H](C(C)C)NC(=O)[C@H](CCCNC(=N)N)NC(=O)[C@H](CCC(N)=O)NC(=O)[C@H](C(C)C)NC(=O)[C@H](Cc2c[nH]cn2)NC(=O)[C@H](CCC(N)=O)NC(=O)[C@H](CC(N)=O)NC(=O)[C@H](CC(C)C)NC1=O [compound 20] (HELM PEPTIDE1{K.W.[meA].Q.S.I.L.N.Q.H.V.Q.R.V.W.G}$PEPTIDE1,PEPTIDE1,1:R3-16:R2$$$V2.0; bridges inferred)	–	> 30	–	> 30	–	106
CC[C@H](C)[C@H](NC(=O)[C@H](CC(C)C)NC(=O)[C@H](Cc1ccccc1)NC(=O)[C@H](Cc1c[nH]c2ccccc12)NC(=O)[C@@H](N)CCSC)C(=O)N[C@@H](CO)C(=O)N[C@@H](Cc1ccccc1)C(=O)N[C@@H](Cc1c[nH]c2ccccc12)C(=O)NCC(=O)O [compound 17] (H-MWFLISFWG-OH)	–	< 7.5	1.66	0.4 to 1	–	98
CCCCCCCCCCCCCCCCCC(=O)NCCCC(=O)N[C@@H](Cc1c[nH]c2ccccc12)C(=O)N(C)[C@@H](Cc1c[nH]c2ccccc12)C(=O)N[C@@H](CCC(=O)O)C(=O)NC(C)(CO)C(=O)N[C@H](C(=O)N[C@@H](CC(C)C)C(=O)N[C@@H](CC(=O)O)C(=O)N[C@@H](CCC(=O)O)C(=O)N[C@@H](Cc1c[nH]cn1)C(=O)NC(C)(C(=O)N[C@@H](CCC(N)=O)C(=O)N[C@@H](CCCNC(=N)N)C(=O)N[C@H](C(=O)N[C@@H](Cc1c[nH]c2ccccc12)C(=O)O)C(C)C)C(C)C)[C@@H](C)CC (stereo partly shown) [compound 395] ({Stearoyl-GABA}-W[NMeW]E[ξαMeS]ILDEH[ξαMeV]QRVW-OH)	6.8	7.5 to 15	–	–	–	–
CC[C@H](C)[C@H](NC(=O)[C@H](CO)NC(=O)[C@H](CCC(=O)O)NC(=O)[C@H](Cc1c[nH]c2ccccc12)NC(=O)[C@@H](N)CCSC)C(=O)N[C@@H](CC(C)C)C(=O)N[C@@H](CC(=O)O)C(=O)N[C@@H](CCC(=O)O)C(=O)N[C@@H](Cc1c[nH]cn1)C(=O)N[C@@H](CCSC)C(=O)N[C@@H](CCC(N)=O)C(=O)N[C@@H](CCCNC(=N)N)C(=O)N[C@H](C(=O)N[C@@H](Cc1c[nH]c2ccccc12)C(=O)N[C@@H](CCCNC(=N)N)C(=O)NCC(=O)O)C(C)C [compound 23] (H-MWESILDEHMQRVWRG-OH)	–	> 30	0.71	< 0.4	–	98.9

Source: patent publication US12441768B2, “Compositions and methods for treating endometriosis” (EndoMet Biosciences, Inc., priority 2018, dated 2025)
